Test results published in BindingDB's records for patent US20250352549 (Avelos Therapeutics, 2025).

What follows are molecules tested against T1, Serine/threonine-protein kinase greatwall (Human, UniProt Q96GX5) (assay: MASTL Activity Assay).
T1 sequence (Q96GX5 whole entry): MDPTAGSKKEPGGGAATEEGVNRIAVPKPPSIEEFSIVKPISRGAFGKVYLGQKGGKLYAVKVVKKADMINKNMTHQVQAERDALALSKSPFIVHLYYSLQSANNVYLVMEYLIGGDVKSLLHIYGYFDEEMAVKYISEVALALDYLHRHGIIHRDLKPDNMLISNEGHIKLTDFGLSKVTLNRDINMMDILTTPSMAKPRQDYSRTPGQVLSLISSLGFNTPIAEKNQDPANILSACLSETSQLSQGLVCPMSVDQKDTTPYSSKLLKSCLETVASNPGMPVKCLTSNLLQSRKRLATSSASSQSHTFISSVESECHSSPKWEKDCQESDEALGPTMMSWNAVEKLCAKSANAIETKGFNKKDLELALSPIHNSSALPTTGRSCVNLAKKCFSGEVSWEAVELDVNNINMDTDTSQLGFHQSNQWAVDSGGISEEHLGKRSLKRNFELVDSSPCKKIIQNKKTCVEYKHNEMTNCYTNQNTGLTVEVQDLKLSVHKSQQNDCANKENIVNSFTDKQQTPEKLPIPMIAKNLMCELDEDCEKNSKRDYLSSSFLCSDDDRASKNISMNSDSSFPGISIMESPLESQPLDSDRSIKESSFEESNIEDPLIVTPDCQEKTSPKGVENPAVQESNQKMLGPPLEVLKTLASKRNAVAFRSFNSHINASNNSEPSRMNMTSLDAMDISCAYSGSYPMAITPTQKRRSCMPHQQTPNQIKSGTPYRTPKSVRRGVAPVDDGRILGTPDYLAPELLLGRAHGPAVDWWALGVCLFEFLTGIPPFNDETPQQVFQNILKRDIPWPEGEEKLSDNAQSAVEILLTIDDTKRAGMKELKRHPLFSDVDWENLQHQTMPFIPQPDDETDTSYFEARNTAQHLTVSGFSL
Protocol: Wild-type human active MASTL (154 pM) was incubated in assay buffer (50 mM HEPES, 100 mM NaCl, 0.1 mM EGTA, 10 mM MgCl2, 0.01% Tween-20, 0.5 mM TCEP, pH 7.5) with biotin tagged 40-mer ENSA peptide (10 nM), test compound and ATP (18 μM) for 60 minutes at room temperature. Test compounds were assayed using a 12-point dose range consisting of a 0, DMSO control and 10 sequential doses consisting from 0.0005, 0.002, 0.005, 0.014, 0.04, 0.12, 0.37, 1.11, 3.33 and 10 μM. The DMSO concentration was the same (1%) in all samples. An equal volume of detection buffer (assay buffer+267.5 pM Ab-K, 1.25 nM SA-D2, 20 mM EDTA and 400 mM KF) was added to stop the reaction to make a final volume of 20 μl, RT for 60 mins. Activity was measured using a plate reader (PerkinElmer EnSight) by the FRET signal generated between SA-D2 (streptavidin-D2) and Ab-K (anti-phospho-Serine 67 ENSA antibody (rabbit polyclonal, using standard techniques by a commercial supplier) conjugated to Cryptate). HTRF reagents (CisBio) were prepared as per the manufacturer recommendations. The 40-mer biotin-tagged ENSA peptide (synthesised by Bionics) used was based around Serine 67 on ENSA ([…]).

Compound	IC50
Cc1ncc2ccc(-c3nc(N)nc(NC(c4ccccc4)c4c[nH]c(C(F)(F)F)n4)n3)cn12 (configuration not stated) [US20250352549, Example 2]	> 1000 nM
COC(=O)C(Cc1cccc(Cl)c1Cl)Nc1cc(-c2ccc3cnc(C)n3c2)nc(N)n1 (configuration not stated) [US20250352549, Example 3]	< 500 nM
COC(=O)C(Cc1cccc(Cl)c1Cl)Nc1nc(N)nc(-c2ccc3cnc(C)n3c2)n1 (configuration not stated) [US20250352549, Example 4]	< 500 nM
[2H]C([2H])([2H])Nc1nc(NC(CC)c2c[nH]c(C(F)(F)F)n2)nc(-c2ccc3cnc(C)n3c2)n1 (configuration not stated) [US20250352549, Example 5]	< 500 nM
CCC(Nc1nc(N)nc(-c2ccc3[nH]ncc3c2)n1)c1c[nH]c(C(F)(F)F)n1 (configuration not stated) [US20250352549, Example 8]	< 500 nM
Cc1ncc2ccc(-c3nc(C#N)nc(NC(Cc4cccc(Cl)c4Cl)C(=O)O)n3)cn12 (configuration not stated) [US20250352549, Example 15]	> 1000 nM
Cc1ncc2ccc(-c3cc(NCC(N)c4cccc(Cl)c4Cl)nc(N)n3)cn12 (configuration not stated) [US20250352549, Example 16]	< 500 nM
CNC(CNc1cc(-c2ccc3cnc(C)n3c2)nc(N)n1)c1cccc(Cl)c1Cl (configuration not stated) [US20250352549, Example 17]	< 500 nM
CC(=O)NC(CNc1cc(-c2ccc3cnc(C)n3c2)nc(N)n1)c1cccc(Cl)c1Cl (configuration not stated) [US20250352549, Example 18]	< 500 nM
CC(=O)N(C)C(CNc1cc(-c2ccc3cnc(C)n3c2)nc(N)n1)c1cccc(Cl)c1Cl (configuration not stated) [US20250352549, Example 19]	< 500 nM
CONC(=O)C(Cc1cccc(Cl)c1Cl)Nc1nc(N)nc(-c2ccc3cnc(C)n3c2)n1 (configuration not stated) [US20250352549, Example 20]	< 500 nM
Cc1ncc2ccc(-c3nc(N)nc(NC(Cc4cccc(Cl)c4Cl)c4nnn[nH]4)n3)cn12 (configuration not stated) [US20250352549, Example 21]	< 500 nM
Cc1ncc2ccc(-c3nc(N)nc(NC(Cc4cccc(Cl)c4Cl)c4nc[nH]n4)n3)cn12 (configuration not stated) [US20250352549, Example 22]	< 500 nM
Cc1ncc2ccc(-c3nc(N)nc(NC(Cc4cccc(Cl)c4Cl)c4ncno4)n3)cn12 (configuration not stated) [US20250352549, Example 23]	> 1000 nM
CC(C)C(Nc1nc(N)nc(-c2ccc3[nH]ncc3c2)n1)c1c[nH]c(C(F)(F)F)n1 (configuration not stated) [US20250352549, Example 24]	< 500 nM
CNc1nc(NC(c2ccn(C(F)F)n2)C(C)C)nc(-c2ccc3[nH]ncc3c2)n1 (configuration not stated) [US20250352549, Example 27]	< 500 nM
[2H]C([2H])([2H])n1ncc2ccc(-c3nc(N)nc(NC(c4c[nH]c(C(F)(F)F)n4)C(C)C)n3)cc21 (configuration not stated) [US20250352549, Example 28]	< 500 nM

Compound	IC50
[2H]C([2H])([2H])Nc1nc(NC(c2c[nH]c(C(F)(F)F)n2)C(C)C)nc(-c2ccc3cnn(C)c3c2)n1 (configuration not stated) [US20250352549, Example 31]	< 500 nM
Nc1nc(NC(c2c[nH]c(C(F)(F)F)n2)C2CC2)nc(-c2ccc3[nH]ncc3c2)n1 (configuration not stated) [US20250352549, Example 32]	< 500 nM
CC(C)C(Nc1nc(N)nc(-c2ccc3c(cnn3C)c2)n1)c1c[nH]c(C(F)(F)F)n1 (configuration not stated) [US20250352549, Example 34]	< 500 nM
Cc1n[nH]c2ccc(-c3nc(N)nc(NC(c4c[nH]c(C(F)(F)F)n4)C(C)C)n3)cc12 (configuration not stated) [US20250352549, Example 35]	< 500 nM
[2H]C([2H])([2H])n1ncc2ccc(-c3nc(N)nc(NC(C)(C)Cc4cccc(F)n4)n3)cc21 [US20250352549, Example 36]	< 500 nM
[2H]C([2H])([2H])n1ncc2ccc(-c3cc(NC(C)(C)Cn4ccc(C(F)(F)F)n4)nc(N)n3)cc21 [US20250352549, Example 40]	< 500 nM
CC(C)CC(Nc1nc(N)nc(-c2ccc3[nH]ncc3c2)n1)c1c[nH]c(C(F)(F)F)n1 (configuration not stated) [US20250352549, Example 43]	in the range around 750 nM
Cc1nn(C)c2cc(-c3nc(N)nc(NC(c4c[nH]c(C(F)(F)F)n4)C(C)C)n3)ccc12 (configuration not stated) [US20250352549, Example 44]	< 500 nM
CC(C)C(Nc1nc(N)nc(-c2ccc3c(F)nn(C)c3c2)n1)c1c[nH]c(C(F)(F)F)n1 (configuration not stated) [US20250352549, Example 45]	< 500 nM
CNc1nc(NC(Cc2cccc(Cl)c2Cl)C(=O)O)nc(-c2ccc3cnc(C)n3c2)n1 (configuration not stated) [US20250352549, Example 138]	< 500 nM
Cc1ncc2ccc(-c3cc(NC(Cc4cccc(F)c4F)C(=O)O)nc(N)n3)cn12 (configuration not stated) [US20250352549, Example 144]	< 500 nM
CNc1nc(NC(Cc2cccc(Cl)c2Cl)C(=O)O)cc(-c2ccc3cnc(C)n3c2)n1 (configuration not stated) [US20250352549, Example 145]	< 500 nM
Cc1nc(F)c2ccc(-c3nc(N)nc(NC(c4c[nH]c(C(F)(F)F)n4)C(C)C)n3)cn12 (configuration not stated) [US20250352549, Example 147]	< 500 nM
Cc1ncc2ccc(-c3cc(NC(Cc4cccc(Cl)c4Cl)C(N)=O)nc(N)n3)cn12 (configuration not stated) [US20250352549, Example 148]	< 500 nM
Cc1ncc2ccc(-c3cc(NC(c4c[nH]c(C(F)(F)F)n4)C(C)C)nc(N)n3)cn12 (configuration not stated) [US20250352549, Example 150]	< 500 nM
Cc1ncc2ccc(-c3nc(N)nc(NC(c4c[nH]c(C(F)(F)F)n4)C4CC4)n3)cn12 (configuration not stated) [US20250352549, Example 154]	< 500 nM

More lines, now with the values ahead:

IC50	Compound
< 500 nM	Cc1ncc2ncc(-c3nc(N)nc(NC(C)(C)c4ccn(C(F)F)n4)n3)cn12 [US20250352549, Example 1]
< 500 nM	[2H]C([2H])([2H])n1ncc2ccc(-c3nc(N)nc(NC(C)(C)c4ccn(C(F)F)n4)n3)cc21 [US20250352549, Example 9]
< 500 nM	CC(C)(Nc1nc(N)nc(-c2ccc3cnc(N)n3c2)n1)c1ccn(C(F)F)n1 [US20250352549, Example 10]
< 500 nM	CC(C)(Nc1nc(N)nc(-c2ccc3cnc(N)n3c2)n1)c1c[nH]c(C(F)(F)F)n1 [US20250352549, Example 11]
> 1000 nM	Cc1ncc2ccc(-c3nc(C#N)nc(NC(C)(C)c4ccn(C(F)F)n4)n3)cn12 [US20250352549, Example 12]
> 1000 nM	Cc1ncc2ncc(-c3nc(N)nc(NC(C)(C)c4ccn(C(F)F)n4)n3)cn12 [US20250352549, Example 13]
< 500 nM	CNc1nc(NC(C)(C)c2ccn(C(F)F)n2)nc(-c2ccc3[nH]ncc3c2)n1 [US20250352549, Example 26]
< 500 nM	[2H]C([2H])([2H])Nc1nc(NC(C)(C)c2ccn(C(F)F)n2)nc(-c2ccc3cnc(N)n3c2)n1 [US20250352549, Example 30]
< 500 nM	Nc1nc(NC(c2ccn(C(F)F)n2)C2CC2)nc(-c2ccc3[nH]ncc3c2)n1 (configuration not stated) [US20250352549, Example 33]
< 500 nM	CNc1ncc2ccc(-c3nc(N)nc(NC(C)(C)c4ccn(C(F)F)n4)n3)cn12 [US20250352549, Example 37]
> 1000 nM	CC(C)(Nc1nc(N)nc(-c2ccc3cnc(O)n3c2)n1)c1ccn(C(F)F)n1 [US20250352549, Example 38]
< 500 nM	CC(C)(Cc1cccc(Cl)c1Cl)Nc1nc(N)nc(-c2ccc3cnc(N)n3c2)n1 [US20250352549, Example 41]
< 500 nM	Nc1nc(NCCc2ccc(Cl)c(F)c2F)nc(-c2ccc3cnc(N)n3c2)n1 [US20250352549, Example 42]
< 500 nM	Cn1ncc2cc(-c3nc(N)nc(NC(C)(C)c4c[nH]c(C(F)(F)F)n4)n3)ccc21 [US20250352549, Example 46]
< 500 nM	Cn1ncc2cc(-c3nc(N)nc(NC(C)(C)c4ccn(C(F)F)n4)n3)ccc21 [US20250352549, Example 48]
< 500 nM	CNc1nc(NC(C)(C)c2ccn(C(F)F)n2)nc(-c2ccc3cnc(C)n3c2)n1 [US20250352549, Example 135]
< 500 nM	Cc1ncc2ccc(-c3nc(N)nc(NC(C)c4ccc(F)cn4)n3)cn12 (configuration not stated) [US20250352549, Example 139]
< 500 nM	CCC(Nc1nc(N)nc(-c2ccc3cnc(C)n3c2)n1)c1ccc(F)cn1 (configuration not stated) [US20250352549, Example 140]
< 500 nM	Cc1ncc2ccc(-c3nc(N)nc(NCc4c[nH]c(C(F)(F)F)n4)n3)cn12 [US20250352549, Example 151]
